Source: ChEMBL document CHEMBL3526000 (Drug Metab Dispos, 2012)
Blank lines part the entries; values can stand above or below the compound they belong to.

Tests used:
Assay type in all cases: ADME
[1] = molecular target: T1, UDP-glucuronosyltransferase 1A4 (Homo sapiens, UniProt P22310); assay: Drug metabolism assessed as UGT1A4 activity in human liver microsome assessed as of N-glucuronidation at 25 to 200 uM incubated for 60 mins by LC-MS/MS analysis; conditions: microsomes, 1 h
T1 sequence (P22310 whole entry): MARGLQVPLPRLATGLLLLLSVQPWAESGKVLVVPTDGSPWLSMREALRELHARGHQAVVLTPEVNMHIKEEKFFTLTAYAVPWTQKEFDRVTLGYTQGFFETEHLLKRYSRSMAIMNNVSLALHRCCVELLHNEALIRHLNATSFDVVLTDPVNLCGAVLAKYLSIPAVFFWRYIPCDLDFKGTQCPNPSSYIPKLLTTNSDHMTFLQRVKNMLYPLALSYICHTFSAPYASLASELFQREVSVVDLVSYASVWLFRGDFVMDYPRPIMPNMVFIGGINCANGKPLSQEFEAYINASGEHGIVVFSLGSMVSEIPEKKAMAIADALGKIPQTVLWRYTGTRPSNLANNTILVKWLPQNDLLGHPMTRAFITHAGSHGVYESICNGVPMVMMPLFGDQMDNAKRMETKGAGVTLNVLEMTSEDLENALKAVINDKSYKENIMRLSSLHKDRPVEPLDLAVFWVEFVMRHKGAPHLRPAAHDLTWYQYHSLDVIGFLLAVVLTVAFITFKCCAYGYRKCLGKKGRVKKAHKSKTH

Liver microsome = assay: Drug metabolism assessed as Sprague-Dawley rat liver microsomes assessed as compound formation treated with at 100 uM haloperidol by LC-MS/MS analysis
[2] = molecular target: T2, UDP-glucuronosyltransferase 2B7 (Homo sapiens, UniProt P16662); assay: Drug metabolism assessed as UGT2B7 activity in human liver microsome assessed as of O-glucuronidation at 25 to 200 uM incubated for 60 mins by LC-MS/MS analysis; conditions: microsomes, 1 h
T2 sequence (P16662 whole entry): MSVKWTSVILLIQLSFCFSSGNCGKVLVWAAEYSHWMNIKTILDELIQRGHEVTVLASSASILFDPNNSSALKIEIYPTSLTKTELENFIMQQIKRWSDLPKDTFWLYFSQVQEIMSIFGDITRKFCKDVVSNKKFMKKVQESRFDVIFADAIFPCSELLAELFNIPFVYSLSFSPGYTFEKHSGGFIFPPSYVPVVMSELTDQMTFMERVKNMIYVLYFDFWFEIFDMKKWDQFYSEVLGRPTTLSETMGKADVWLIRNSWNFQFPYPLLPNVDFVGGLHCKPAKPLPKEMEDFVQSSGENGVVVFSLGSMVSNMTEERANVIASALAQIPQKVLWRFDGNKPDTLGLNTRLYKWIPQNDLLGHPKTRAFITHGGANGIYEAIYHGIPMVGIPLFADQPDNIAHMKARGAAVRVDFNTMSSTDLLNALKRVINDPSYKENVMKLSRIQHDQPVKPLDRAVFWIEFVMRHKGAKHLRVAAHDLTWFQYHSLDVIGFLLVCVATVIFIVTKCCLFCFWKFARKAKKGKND

Drug metabolism [1]: 0.26 nmol/min/mg
Structure (SMILES): CN1CCN(CCCN2c3ccccc3Sc3ccc(C(F)(F)F)cc32)CC1.Cl

Drug metabolism (Liver microsome): metabolite_detected
Structure (SMILES): O=C(CCCN1CCC(O[C@@H]2O[C@H](C(=O)O)[C@@H](O)[C@H](O)[C@H]2O)(c2ccc(Cl)cc2)CC1)c1ccc(F)cc1

Drug metabolism [2]: 0.14 nmol/min/mg
Structure (SMILES): Cc1cn([C@H]2C[C@H](N=[N+]=[N-])[C@@H](CO)O2)c(=O)[nH]c1=O [ZIDOVUDINE]
